From patent publication US4622336A, “3,3-dialkyl-and 3,3-alkylene-indoline derivatives, processes for their production and pharmaceutical compositions comprising them” (Sandoz Ltd., priority 1982, dated 1986)

How the values were obtained:
[1] = system: arthritis pain in the rat; experiment: arthritis pain test in the rat (Test A); assay type: in vivo; details: po
Description: (A) the arthritis pain test in the rat [based on the method of A. W. Pircio et al., Eur. J. Pharmacol., 31, 207-215 (1975)] at dosages of from 3 to 50 mg/kg p.o.; and […]

inflamed rat-hind-paw = experiment: Randall-Selitto test on the inflamed rat-hind-paw (Test B); assay type: in vivo; details: po
Description: (B) the Randall-Selitto test on the inflamed rat-hind-paw [Arch. Int. Pharmacodyn. 61, 409-419 (1957)] at dosages of from 20 to 200 mg/kg p.o..

Compound	ED50 [1]	ED50 (inflamed rat-hind-paw)
CCOc1ccc2c(c1)NCC2(C)C [II, 3,3-Dimethyl-6-ethoxy-indoline]	7 mg/kg	78 mg/kg
CCOc1ccc2c(c1)C(C)(C)CN2 [I, 3,3-Dimethyl-5-ethoxy-indoline]	18 mg/kg	133 mg/kg
CC(=O)Nc1ccc(O)cc1 [III, Paracetamol, reference compound]	174 mg/kg	–
